Assay results published in ChEMBL document CHEMBL1201862, “PubChem BioAssay data set” (2004).
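Cultured in 96-well plates, cells were exposed to test compound for 48 hours across five concentrations. GI50 = concentration required for 50% inhibition of growth.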 The source made the active and inactive calls. No stated cut-off is given here; in the data, active = GI50 up to about 1.1 µM and inactive = higher.

Tests used:
Experiment in all cases: growth of human tumour cells (NCI), 48 h
CAKI-1 = tested on: CAKI-1
COLO 205 = tested on: COLO 205
M14 = tested on: M14
NCI-H226 = tested on: NCI-H226
NCI-H23 = tested on: NCI-H23
NCI-H460 = tested on: NCI-H460
OVCAR-3 = tested on: OVCAR-3
RPMI-8226 = tested on: RPMI-8226
SK-MEL-28 = tested on: SK-MEL-28
SK-MEL-5 = tested on: SK-MEL-5
SK-OV-3 = tested on: SK-OV-3
SNB-19 = tested on: SNB-19
SW-620 = tested on: SW-620
UACC-62 = tested on: UACC-62
UO-31 = tested on: UO-31
A549 = tested on: A549
HCC 2998 = tested on: HCC 2998
OVCAR-4 = tested on: OVCAR-4
UACC-257 = tested on: UACC-257
HCT-116 = tested on: HCT-116

Compound | GI50 (CAKI-1) | GI50 (COLO 205) | GI50 (M14) | GI50 (NCI-H226) | GI50 (NCI-H23) | GI50 (NCI-H460) | GI50 (OVCAR-3) | GI50 (RPMI-8226) | GI50 (SK-MEL-28) | GI50 (SK-MEL-5) | GI50 (SK-OV-3) | GI50 (SNB-19) | GI50 (SW-620) | GI50 (UACC-62) | GI50 (UO-31) | GI50 (A549) | GI50 (HCC 2998) | GI50 (OVCAR-4) | GI50 (UACC-257) | GI50 (HCT-116)
CC1=NC(C(=O)O)Cc2c1[nH]c1ccccc21 (stereo unspecified) | > 100 µM (inactive) | > 100 µM (inactive) | > 100 µM (inactive) | > 100 µM (inactive) | > 100 µM (inactive) | > 100 µM (inactive) | > 100 µM (inactive) | > 100 µM (inactive) | > 100 µM (inactive) | > 100 µM (inactive) | > 100 µM (inactive) | > 100 µM (inactive) | > 100 µM (inactive) | > 100 µM (inactive) | > 100 µM (inactive) |  |  |  |  | 
COc1ccc([C@H]2C=[N+]([O-])O[C@H](OC3CCCC3)[C@@H]2OC(C)=O)cc1OC | 14 µM (inactive) | 15.9 µM (inactive) | 21.4 µM (inactive) | 47.6 µM (inactive) | 25.6 µM (inactive) | 43.9 µM (inactive) | 26 µM (inactive) | 23.5 µM (inactive) | 20.8 µM (inactive) | 13.1 µM (inactive) | > 100 µM (inactive) | > 100 µM (inactive) | 19.8 µM (inactive) | 22.8 µM (inactive) | 18.7 µM (inactive) | 29.4 µM (inactive) | 13.2 µM (inactive) | 33.6 µM (inactive) | 19.7 µM (inactive) | 
CCOC(=O)c1csc(NC(=O)CCCC#N)n1 | > 100 µM (inactive) | > 100 µM (inactive) | > 100 µM (inactive) | > 100 µM (inactive) | > 100 µM (inactive) | > 100 µM (inactive) | > 100 µM (inactive) | > 100 µM (inactive) | > 100 µM (inactive) | > 100 µM (inactive) | > 100 µM (inactive) | > 100 µM (inactive) | > 100 µM (inactive) | > 100 µM (inactive) | > 100 µM (inactive) | > 100 µM (inactive) | > 100 µM (inactive) | > 100 µM (inactive) | > 100 µM (inactive) | 
O=C1CN(c2ccccc2)C(=O)C1C(=O)Nc1ccc(Cl)c(Cl)c1 (stereo unspecified) |  | 8.07 µM (inactive) | 1.79 µM (inactive) |  | 7.31 µM (inactive) |  | 3.15 µM (inactive) |  | 7.43 µM (inactive) | 1.36 µM (inactive) | 5.19 µM (inactive) | 4.62 µM (inactive) | 1.21 µM (inactive) | 1.73 µM (inactive) | 4.12 µM (inactive) | 2.72 µM (inactive) |  | 11.7 µM (inactive) | 8.28 µM (inactive) | 
CC1(C)C2CCC3(OCCO3)C1C(O)C2 (stereo unspecified) | > 100 µM (inactive) |  | > 100 µM (inactive) | > 100 µM (inactive) | > 100 µM (inactive) | > 100 µM (inactive) | > 100 µM (inactive) | > 100 µM (inactive) | > 100 µM (inactive) | > 100 µM (inactive) |  | > 100 µM (inactive) | > 100 µM (inactive) | > 100 µM (inactive) | > 100 µM (inactive) | > 100 µM (inactive) | > 100 µM (inactive) | > 100 µM (inactive) | > 100 µM (inactive) | > 100 µM (inactive)
Cc1ccc([N+](=O)[O-])cc1/N=N/C(=O)NNc1cc([N+](=O)[O-])ccc1C | 25.9 µM (inactive) | 33.1 µM (inactive) | 18.9 µM (inactive) | > 10 µM (inactive) | 48.9 µM (inactive) | > 10 µM (inactive) | 18.1 µM (inactive) | 30.4 µM (inactive) | 26.8 µM (inactive) | 17.8 µM (inactive) | 11.1 µM (inactive) | 41.9 µM (inactive) |  | 14.7 µM (inactive) | 23.6 µM (inactive) |  | 23.3 µM (inactive) |  |  | 17.7 µM (inactive)
O=C(NNC(=S)NCc1ccccc1)C12CC3CC(CC(C3)C1)C2 |  | 20.4 µM (inactive) | 74.3 µM (inactive) | > 100 µM (inactive) | 74.6 µM (inactive) | 36.3 µM (inactive) | 54.6 µM (inactive) | 45.1 µM (inactive) | 67.6 µM (inactive) |  | > 100 µM (inactive) | > 100 µM (inactive) | 48 µM (inactive) | 66.7 µM (inactive) | 50.1 µM (inactive) |  | 69.8 µM (inactive) | 76.6 µM (inactive) | 52.5 µM (inactive) | 34.5 µM (inactive)
COc1cc2c(cc1OC)C(Cl)C(c1cc(OC)c(OC)c(OC)c1)=C2Cl (stereo unspecified) | 9.1 µM (inactive) | 17.5 µM (inactive) | 17.2 µM (inactive) | 18.7 µM (inactive) | 19.3 µM (inactive) | 14.4 µM (inactive) | 17.1 µM (inactive) | 8.71 µM (inactive) | 16.4 µM (inactive) | 15.6 µM (inactive) | 28.4 µM (inactive) | 14.3 µM (inactive) | 18.8 µM (inactive) | 13.6 µM (inactive) | 11 µM (inactive) |  |  |  |  | 
CN(C)CCSc1nccc(-c2ccc(-c3ccnc(SCCN(C)C)n3)s2)n1 | 13.5 µM (inactive) | 9.4 µM (inactive) |  | 12.9 µM (inactive) | 11.2 µM (inactive) | 3.01 µM (inactive) | 13.4 µM (inactive) | 2.69 µM (inactive) | 19.1 µM (inactive) | 15.9 µM (inactive) | 19.1 µM (inactive) | 11.1 µM (inactive) | 3.18 µM (inactive) | 15.3 µM (inactive) | 4.94 µM (inactive) | 12.4 µM (inactive) | 6.08 µM (inactive) | 4.13 µM (inactive) | 16.7 µM (inactive) | 3.33 µM (inactive)
C1CCC2(CC1)O[C@@H]1[C@@H](O2)[C@@H](O[C@H]2O[C@@H]3COC4(CCCCC4)O[C@H]3[C@@H]3OC4(CCCCC4)O[C@@H]23)O[C@@H]2COC3(CCCCC3)O[C@@H]12 | > 100 µM (inactive) | > 100 µM (inactive) | > 100 µM (inactive) |  | > 100 µM (inactive) |  | > 100 µM (inactive) | 36.6 µM (inactive) | > 100 µM (inactive) | > 100 µM (inactive) | > 100 µM (inactive) | > 100 µM (inactive) | > 100 µM (inactive) | > 100 µM (inactive) | > 100 µM (inactive) | > 100 µM (inactive) |  | > 100 µM (inactive) | > 100 µM (inactive) | > 100 µM (inactive)
c1ccc(/N=C2/SC3=Nc4cccc5cccc(c45)N3/C2=N/c2ccccc2)cc1 | > 100 µM (inactive) | > 100 µM (inactive) | > 100 µM (inactive) | > 100 µM (inactive) | > 100 µM (inactive) | > 100 µM (inactive) | > 100 µM (inactive) | > 100 µM (inactive) | > 100 µM (inactive) | > 100 µM (inactive) | > 100 µM (inactive) | > 100 µM (inactive) |  | > 100 µM (inactive) | > 100 µM (inactive) |  | > 100 µM (inactive) |  |  | > 10 µM (inactive)
Cc1cc2c(C(C)C)c(O)c(O)c(/C=N/c3ccccc3)c2c(O)c1-c1c(C)cc2c(C(C)C)c(O)c(O)c(/C=N/c3ccccc3)c2c1O | > 100 µM (inactive) | > 100 µM (inactive) | > 100 µM (inactive) | > 100 µM (inactive) |  | > 100 µM (inactive) | > 100 µM (inactive) | > 100 µM (inactive) | > 100 µM (inactive) |  | > 100 µM (inactive) | > 100 µM (inactive) | > 100 µM (inactive) | > 100 µM (inactive) | > 100 µM (inactive) | > 100 µM (inactive) | > 100 µM (inactive) | > 100 µM (inactive) |  | > 100 µM (inactive)
COc1ccc2c(C)cc(N/N=C/c3sccc3C)nc2c1 |  | 3.91 µM (inactive) | 11.8 µM (inactive) | 10 µM (inactive) | 14.7 µM (inactive) |  | 2.99 µM (inactive) | 5.69 µM (inactive) | 14.8 µM (inactive) | 6.24 µM (inactive) | 17.1 µM (inactive) | 21.7 µM (inactive) | 21.6 µM (inactive) | 15.9 µM (inactive) | 17.1 µM (inactive) | 13.3 µM (inactive) | 12.6 µM (inactive) | 20.9 µM (inactive) | 10.1 µM (inactive) | 4.08 µM (inactive)
COC(=O)c1cccc(C(=O)OC)c1 | > 100 µM (inactive) | > 100 µM (inactive) | > 100 µM (inactive) | > 100 µM (inactive) | > 100 µM (inactive) | > 100 µM (inactive) |  | > 100 µM (inactive) | > 100 µM (inactive) |  | > 100 µM (inactive) | > 100 µM (inactive) | > 100 µM (inactive) |  |  | > 100 µM (inactive) | > 100 µM (inactive) | > 100 µM (inactive) | > 100 µM (inactive) | > 100 µM (inactive)
CCOC(=O)NC(=O)c1cn(CCSCCOC(=O)NCCCCCCNC(=O)OCCSCCn2cc(C(=O)NC(=O)OCC)c(=O)[nH]c2=O)c(=O)[nH]c1=O | > 100 µM (inactive) | > 100 µM (inactive) | > 100 µM (inactive) |  | > 100 µM (inactive) | > 100 µM (inactive) | > 100 µM (inactive) |  | > 100 µM (inactive) | > 100 µM (inactive) | > 100 µM (inactive) | > 100 µM (inactive) | > 100 µM (inactive) | > 100 µM (inactive) | > 100 µM (inactive) | > 100 µM (inactive) |  | > 100 µM (inactive) | > 100 µM (inactive) | > 100 µM (inactive)
NC1(C(=O)O)CCc2ccc(N(CCCl)CCCl)cc2C1 (stereo unspecified) |  | > 100 µM (inactive) |  | > 100 µM (inactive) | > 100 µM (inactive) | 10.2 µM (inactive) | > 100 µM (inactive) | 84.3 µM (inactive) | > 100 µM (inactive) | 57.3 µM (inactive) | > 100 µM (inactive) | > 100 µM (inactive) | > 100 µM (inactive) | 22.5 µM (inactive) | > 100 µM (inactive) | 61.7 µM (inactive) | > 100 µM (inactive) | > 100 µM (inactive) | > 100 µM (inactive) | 0.01 µM (active)
